Reference: patent US10513522B2, “Azetidinyl phenyl, pyridyl or pyrazinyl carboxamide derivatives as JAK inhibitors” (Incyte Corporation, priority 2011, dated 2019)

Test system: human JAK1 (a.a. 837-1142)
Test: In vitro JAK kinase assay (HTRF, phosphorylation of biotinylated peptide), JAK1
Format: biochemical
Settings: ratio of IC50 at 1 mM ATP
Procedure: The catalytic activity of JAK1, JAK2 or JAK3 was assayed by measuring the phosphorylation of a biotinylated peptide. The phosphorylated peptide was detected by homogenous time resolved fluorescence (HTRF). […] Reactions were carried out at room temperature for 1 hour and then stopped with 20 μL 45 mM EDTA, 300 nM SA-APC, 6 nM Eu-Py20 in assay buffer (Perkin Elmer, Boston, Mass.). Binding to the Europium labeled antibody took place for 40 minutes and HTRF signal was measured on a Fusion plate reader (Perkin Elmer, Boston, Mass.).

Structure (SMILES) | JAK2/JAK1
C[C@H](NC(=O)c1ccc(N2CC(CC#N)(n3cc(-c4ncnc5[nH]ccc45)cn3)C2)cc1F)C(F)(F)F [Example 22, 4-{3-(Cyanomethyl)-3-[4-(7H-pyrrolo[2,3-d]pyrimidin-4-yl)-1H-pyrazol-1-yl]azetidin-1-yl}-2-fluoro-N-[(1S)-2,2,2-trifluoro-1-methylethyl]benzamide] | A (A means greater than or equal to 10)
CC[C@@H](C)NC(=O)c1ccc(N2CC(CC#N)(n3cc(-c4ncnc5[nH]ccc45)cn3)C2)cc1.O=C(O)C(F)(F)F.O=C(O)C(F)(F)F [Example 25, 4-{3-(Cyanomethyl)-3-[4-(7H-pyrrolo[2,3-d]pyrimidin-4-yl)-1H-pyrazol-1-yl]azetidin-1-yl}-N-[(1R)-1-methylpropyl]benzamide bis(trifluoroacetate)] | A (A means greater than or equal to 10)
CC(C)NC(=O)c1ccc(N2CC(CC#N)(n3cc(-c4ncnc5[nH]ccc45)cn3)C2)cn1 [Example 9, 5-{3-(Cyanomethyl)-3-[4-(7H-pyrrolo[2,3-d]pyrimidin-4-yl)-1H-pyrazol-1-yl]azetidin-1-yl}-N-isopropylpyridine-2-carboxamide] | A (A means greater than or equal to 10)
C[C@H](NC(=O)c1ccc(N2CC(CC#N)(n3cc(-c4ncnc5[nH]ccc45)cn3)C2)c(F)c1)C(F)(F)F [Example 10, 4-{3-(Cyanomethyl)-3-[4-(7H-pyrrolo[2,3-d]pyrimidin-4-yl)-1H-pyrazol-1-yl]azetidin-1-yl}-3-fluoro-N-[(1S)-2,2,2-trifluoro-1-methylethyl]benzamide] | A (A means greater than or equal to 10)
C[C@H](NC(=O)c1ccc(N2CC(CC#N)(n3cc(-c4ccnc5[nH]ccc45)cn3)C2)cn1)C1CC1 [Example 2, 5-{3-(Cyanomethyl)-3-[4-(1H-pyrrolo[2,3-b]pyridin-4-yl)-1H-pyrazol-1-yl]azetidin-1-yl}-N-[(1S)-1-cyclopropylethyl]pyridine-2-carboxamide] | A (A means greater than or equal to 10)
C[C@@H](NC(=O)c1cc(F)c(N2CC(CC#N)(n3cc(-c4ncnc5[nH]ccc45)cn3)C2)cc1F)C1CC1 [Example 21, 4-{3-(Cyanomethyl)-3-[4-(7H-pyrrolo[2,3-d]pyrimidin-4-yl)-1H-pyrazol-1-yl]azetidin-1-yl}-N-[(1R)-1-cyclopropylethyl]-2,5-difluorobenzamide] | A (A means greater than or equal to 10)
C[C@H](NC(=O)c1ccc(N2CC(CC#N)(n3cc(-c4ncnc5[nH]ccc45)cn3)C2)cn1)C1CC1 [Example 11, 5-{3-(Cyanomethyl)-3-[4-(7H-pyrrolo[2,3-d]pyrimidin-4-yl)-1H-pyrazol-1-yl]azetidin-1-yl}-N-[(1S)-1-cyclopropylethyl]pyridine-2-carboxamide] | A (A means greater than or equal to 10)
C[C@@H](NC(=O)c1ccc(N2CC(CC#N)(n3cc(-c4ncnc5[nH]ccc45)cn3)C2)c(F)c1)C(F)(F)F [Example 16, 4-{3-(Cyanomethyl)-3-[4-(7H-pyrrolo[2,3-d]pyrimidin-4-yl)-1H-pyrazol-1-yl]azetidin-1-yl}-3-fluoro-N-[(1R)-2,2,2-trifluoro-1-methylethyl]benzamide] | A (A means greater than or equal to 10)
CC(C)NC(=O)c1ccc(N2CC(CC#N)(n3cc(-c4ncnc5[nH]ccc45)cn3)C2)c(F)c1 [Example 3, 4-{3-(Cyanomethyl)-3-[4-(7H-pyrrolo[2,3-d]pyrimidin-4-yl)-1H-pyrazol-1-yl]azetidin-1-yl}-3-fluoro-N-isopropylbenzamide] | A (A means greater than or equal to 10)
CC(C)NC(=O)c1ccc(N2CC(CC#N)(n3cc(-c4ccnc5[nH]ccc45)cn3)C2)c(F)c1 [Example 27, 4-{3-(Cyanomethyl)-3-[4-(1H-pyrrolo[2,3-b]pyridin-4-yl)-1H-pyrazol-1-yl]azetidin-1-yl}-3-fluoro-N-isopropylbenzamide] | A (A means greater than or equal to 10)
CC(C)NC(=O)c1cc(Cl)c(N2CC(CC#N)(n3cc(-c4ncnc5[nH]ccc45)cn3)C2)cc1F [Example 8, 5-Chloro-4-{3-(cyanomethyl)-3-[4-(7H-pyrrolo[2,3-d]pyrimidin-4-yl)-1H-pyrazol-1-yl]azetidin-1-yl}-2-fluoro-N-isopropylbenzamide] | A (A means greater than or equal to 10)
CC(NC(=O)c1ccc(N2CC(CC#N)(n3cc(-c4ncnc5[nH]ccc45)cn3)C2)cc1)C1CCN(C)CC1 (stereo not shown) [Example 20, 4-{3-(Cyanomethyl)-3-[4-(7H-pyrrolo[2,3-d]pyrimidin-4-yl)-1H-pyrazol-1-yl]azetidin-1-yl}-N-[1-(1-methylpiperidin-4-yl)ethyl]benzamide] | A (A means greater than or equal to 10)
C[C@H](NC(=O)c1ccc(N2CC(CC#N)(n3cc(-c4ncnc5[nH]ccc45)cn3)C2)cc1F)C1CCCCC1 [Example 15, 4-{3-(Cyanomethyl)-3-[4-(7H-pyrrolo[2,3-d]pyrimidin-4-yl)-1H-pyrazol-1-yl]azetidin-1-yl}-N-[(1S)-1-cyclohexylethyl]-2-fluorobenzamide] | A (A means greater than or equal to 10)
C[C@@H](NC(=O)c1cnc(N2CC(CC#N)(n3cc(-c4ncnc5[nH]ccc45)cn3)C2)cn1)C(F)(F)F [Example 30, 5-{3-(Cyanomethyl)-3-[4-(7H-pyrrolo[2,3-d]pyrimidin-4-yl)-1H-pyrazol-1-yl]azetidin-1-yl}-N-[(1R)-2,2,2-trifluoro-1-methylethyl]pyrazine-2-carboxamide] | A (A means greater than or equal to 10)
N#CCC1(n2cc(-c3ncnc4[nH]ccc34)cn2)CN(c2ccc(C(=O)NC3(C(F)(F)F)CC3)nc2)C1 [Example 17, 5-{3-(Cyanomethyl)-3-[4-(7H-pyrrolo[2,3-d]pyrimidin-4-yl)-1H-pyrazol-1-yl]azetidin-1-yl}-N-[1-(trifluoromethyl)cyclopropyl]pyridine-2-carboxamide] | A (A means greater than or equal to 10)

Now from value to compound:

JAK2/JAK1 | Structure (SMILES)
A (A means greater than or equal to 10) | N#CCC1(n2cc(-c3ccnc4[nH]ccc34)cn2)CN(c2ccc(C(=O)NC3(C(F)(F)F)CC3)nc2)C1 [Example 40, 5-{3-(Cyanomethyl)-3-[4-(1H-pyrrolo[2,3-b]pyridin-4-yl)-1H-pyrazol-1-yl]azetidin-1-yl}-N-[1-(trifluoromethyl)cyclopropyl]pyridine-2-carboxamide]
A (A means greater than or equal to 10) | N#CCC1(n2cc(-c3ncnc4[nH]ccc34)cn2)CN(c2cnc(C(=O)N[C@@H](C3CC3)C(F)(F)F)cn2)C1 [Example 32, 5-{3-(Cyanomethyl)-3-[4-(7H-pyrrolo[2,3-d]pyrimidin-4-yl)-1H-pyrazol-1-yl]azetidin-1-yl}-N-[(1S)-1-cyclopropyl-2,2,2-trifluoroethyl]pyrazine-2-carboxamide]
A (A means greater than or equal to 10) | C[C@H](NC(=O)c1cnc(N2CC(CC#N)(n3cc(-c4ncnc5[nH]ccc45)cn3)C2)cn1)C(F)(F)F [Example 31, 5-{3-(Cyanomethyl)-3-[4-(7H-pyrrolo[2,3-d]pyrimidin-4-yl)-1H-pyrazol-1-yl]azetidin-1-yl}-N-[(1S)-2,2,2-trifluoro-1-methylethyl]pyrazine-2-carboxamide]
A (A means greater than or equal to 10) | N#CCC1(n2cc(-c3ncnc4[nH]ccc34)cn2)CN(c2cnc(C(=O)NC3(C(F)(F)F)CC3)cn2)C1 [Example 33, 5-{3-(Cyanomethyl)-3-[4-(7H-pyrrolo[2,3-d]pyrimidin-4-yl)-1H-pyrazol-1-yl]azetidin-1-yl}-N-[1-(trifluoromethyl)cyclopropyl]pyrazine-2-carboxamide]
A (A means greater than or equal to 10) | C[C@@H](NC(=O)c1ccc(N2CC(CC#N)(n3cc(-c4ncnc5[nH]ccc45)cn3)C2)cc1F)C1CC1 [Example 39, 4-{3-(Cyanomethyl)-3-[4-(7H-pyrrolo[2,3-d]pyrimidin-4-yl)-1H-pyrazol-1-yl]azetidin-1-yl}-N-[(1R)-1-cyclopropylethyl]-2-fluorobenzamide]
A (A means greater than or equal to 10) | N#CCC1(n2cc(-c3ccnc4[nH]ccc34)cn2)CN(c2cnc(C(=O)NCC(F)(F)F)cn2)C1 [Example 36, 5-{3-(Cyanomethyl)-3-[4-(1H-pyrrolo[2,3-b]pyridin-4-yl)-1H-pyrazol-1-yl]azetidin-1-yl}-N-(2,2,2-trifluoroethyl)pyrazine-2-carboxamide]
A (A means greater than or equal to 10) | C[C@H](NC(=O)c1cnc(N2CC(CC#N)(n3cc(-c4ccnc5[nH]ccc45)cn3)C2)cn1)C1CC1 [Example 41, 5-{3-(Cyanomethyl)-3-[4-(1H-pyrrolo[2,3-b]pyridin-4-yl)-1H-pyrazol-1-yl]azetidin-1-yl}-N-[(1S)-1-cyclopropylethyl]pyrazine-2-carboxamide]
A (A means greater than or equal to 10) | N#CCC1(n2cc(-c3ncnc4[nH]ccc34)cn2)CN(c2ccc(C(=O)N[C@@H](C3CC3)C(F)(F)F)cc2)C1 [Example 38, 4-{3-(Cyanomethyl)-3-[4-(7H-pyrrolo[2,3-d]pyrimidin-4-yl)-1H-pyrazol-1-yl]azetidin-1-yl}-N-[(1S)-1-cyclopropyl-2,2,2-trifluoroethyl]benzamide]
A (A means greater than or equal to 10) | C[C@H](NC(=O)c1cnc(N2CC(CC#N)(n3cc(-c4ccnc5[nH]ccc45)cn3)C2)cn1)C(F)(F)F [Example 35, 5-{3-(Cyanomethyl)-3-[4-(1H-pyrrolo[2,3-b]pyridin-4-yl)-1H-pyrazol-1-yl]azetidin-1-yl}-N-[(1S)-2,2,2-trifluoro-1-methylethyl]pyrazine-2-carboxamide]
A (A means greater than or equal to 10) | N#CCC1(n2cc(-c3ccnc4[nH]ccc34)cn2)CN(c2cnc(C(=O)N[C@@H](C3CC3)C(F)(F)F)cn2)C1 [Example 42, 5-{3-(Cyanomethyl)-3-[4-(1H-pyrrolo[2,3-b]pyridin-4-yl)-1H-pyrazol-1-yl]azetidin-1-yl}-N-[(1S)-1-cyclopropyl-2,2,2-trifluoroethyl]pyrazine-2-carboxamide]
